The structures appear in SMILES notation.

This experiment deals with BDF1 mice, Adenocarcinoma 755 s.c., tumor weight T/C. Nature of the experiment: NCI In Vivo Anticancer Drug Screen. Data for tumor model Adenocarcinoma 755 (subcutaneous) in B6D2F1 (BDF1) mice. The following applies: endpoint: mean tumor weight, higher = larger tumour. In short, it runs like this: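 In vivo antitumor screen on a transplantable tumor line. Result equals the measure in compound-treated animals divided by the same measure in vehicle controls.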

[1] abbreviates: dose: 50.0 mg/kg/injection, schedule: Q01DX011 (ip), vehicle: carboxymethylcellulose (CMC).
The mark [2] stands for this setting: dose: 25.0 mg/kg/injection, schedule: Q01DX011 (ip), vehicle: carboxymethylcellulose (CMC).

In general, T/C refers to the result in the treated group divided by that in the control group, in per cent. With `O=C(Nc1ccc(C2=NCCCN2)cc1)c1ccc(C(=O)Nc2ccc(C3=NCCCN3)cc2)cc1`, the T/C by setting is: (dose: 0.4 mg/kg/injection, schedule: Q01DX011 (ip), vehicle: water) 103 % of control; (dose: 0.8 mg/kg/injection, schedule: Q01DX011 (ip), vehicle: water) 117 % of control; (dose: 1.6 mg/kg/injection, schedule: Q01DX011 (ip), vehicle: water) 94 % of control; (dose: 3.2 mg/kg/injection, schedule: Q01DX011 (ip), vehicle: water) 97 % of control.
With `C[C@@H]1C[C@H]2CC[C@H](O2)[C@H](C)C(=O)O[C@@H](C)C[C@@H]2CC[C@@H](O2)[C@@H](C)C(=O)O[C@H](C)C[C@H]2CC[C@H](O2)[C@H](C)C(=O)O[C@@H](C)C[C@@H]2CC[C@@H](O2)[C@@H](C)C(=O)O1`, the T/C runs as follows: (dose: 2.5 mg/kg/injection, schedule: Q01DX011 (ip), vehicle: olive oil, sesame oil, peanut oil) 116 % of control; (dose: 5.0 mg/kg/injection, schedule: Q01DX011 (ip), vehicle: olive oil, sesame oil, peanut oil) 85 % of control; (dose: 10.0 mg/kg/injection, schedule: Q01DX011 (ip), vehicle: olive oil, sesame oil, peanut oil) 96 % of control; (dose: 10.0 mg/kg/injection, schedule: Q01DX011 (sc), vehicle: olive oil, sesame oil, peanut oil) 118 % of control; (dose: 18.0 mg/kg/injection, schedule: Q01DX011 (ip), vehicle: carboxymethylcellulose (CMC)) 116 % of control; (dose: 19.0 mg/kg/injection, schedule: Q01DX011 (ip), vehicle: methylcellulose (MC)) 89 % of control. Also, the T/C runs as follows: (dose: 19.0 mg/kg/injection, schedule: Q01DX011 (sc), vehicle: methylcellulose (MC)) 246 % of control; (dose: 20.0 mg/kg/injection, schedule: Q01DX011 (ip), vehicle: olive oil, sesame oil, peanut oil) 48 % of control; (dose: 20.0 mg/kg/injection, schedule: Q01DX011 (sc), vehicle: olive oil, sesame oil, peanut oil) 73 % of control; (dose: 30.0 mg/kg/injection, schedule: Q01DX011 (sc), vehicle: olive oil, sesame oil, peanut oil) 87 % of control; (dose: 36.0 mg/kg/injection, schedule: Q01DX011 (ip), vehicle: carboxymethylcellulose (CMC)) 98 % of control; (dose: 37.5 mg/kg/injection, schedule: Q01DX011 (sc), vehicle: methylcellulose (MC)) 159 % of control. In addition, the T/C reads like this: (dose: 40.0 mg/kg/injection, schedule: Q01DX011 (ip), vehicle: carboxymethylcellulose (CMC)) 87 % of control; under setting [1], 92 % of control; (dose: 60.0 mg/kg/injection, schedule: Q01DX011 (ip), vehicle: carboxymethylcellulose (CMC)) 89 % of control; (dose: 60.0 mg/kg/injection, schedule: Q01DX011 (sc), vehicle: olive oil, sesame oil, peanut oil) 57 % of control; (dose: 75.0 mg/kg/injection, schedule: Q01DX011 (ip), vehicle: methylcellulose (MC)) 91 % of control; (dose: 150.0 mg/kg/injection, schedule: Q01DX011 (sc), vehicle: methylcellulose (MC)) 211 % of control.
Consider `C[N+](C)(C)c1ncnc2c1ncn2C1CCCCO1` (stereo not given), for which the T/C was 58 % of control (dose: 33.0 mg/kg/injection, schedule: Q01DX011 (ip), vehicle: saline) and 12 % of control (dose: 100.0 mg/kg/injection, schedule: Q01DX011 (ip), vehicle: saline).
In the case of `Nc1nc(=S)c2ncn(C3OC(COC(=O)c4ccc([N+](=O)[O-])cc4)C(OC(=O)c4ccc([N+](=O)[O-])cc4)C3OC(=O)c3ccc([N+](=O)[O-])cc3)c2[nH]1` (stereo not given), the T/C by setting is: (dose: 12.5 mg/kg/injection, schedule: Q01DX011 (ip), vehicle: carboxymethylcellulose (CMC)) 34 % of control; under setting [2], 20 % of control.
As for `CC1(O)CC([CH2][Hg][I])OC([CH2][Hg][I])C1` (stereo not given), the T/C under setting [2] was 96 % of control and the T/C under setting [1] was 67 % of control.
Turning to `O=C(Nc1ccc(C2=NCCN2)cc1)c1cc(Cl)c(C(=O)Nc2ccc(C3=NCCN3)cc2)cc1Cl`, the T/C is 105 % of control (dose: 15.0 mg/kg/injection, schedule: Q01DX011 (ip), vehicle: methylcellulose (MC)) and 68 % of control (dose: 30.0 mg/kg/injection, schedule: Q01DX011 (ip), vehicle: methylcellulose (MC)).

The values are drawn from PubChem BioAssay AID180 (DTP/NCI, 2004).
